Results reported in ChEMBL document CHEMBL5226361, “Marine Sponge-Derived Alkaloid Induces Mitochondrial Dysfunction and Inhibits the PI3K/AKT/mTOR Signaling Pathway against Burkitt's Lymphoma” (J Nat Prod, 2023).
Activity calls are given as the source filed them. The rule behind the calls is not given here.

Legend:
Raji [1] = experiment: Induction of cell cycle arrest in human Raji cells assessed as accumulation of cells at G0/G1 phase at 5 uM incubated for 48 hrs by PI staining based flow cytometry analysis (reference value: 20.16%); assay type: functional
Daudi [2] = experiment: Induction of cell cycle arrest at G0/G1 phase in human Daudi cells assessed as downregulation of CDK2 protein expression at 0.75 to 3 uM incubated for 24 to 48 hrs by Western blot analysis; assay type: functional, cell-based; details: dose 0.75-3 µM, time 24-48 hrs
Daudi [3] = experiment: Induction of cell cycle arrest at G0/G1 phase in human Daudi cells assessed as upregulation of gamma-H2AX protein expression at 0.75 to 3 uM incubated for 24 to 48 hrs by Western blot analysis; assay type: functional, cell-based; details: dose 0.75-3 µM, time 24-48 hrs
Raji [4] = experiment: Induction of cell cycle arrest at G0/G1 phase in human Raji cells assessed as upregulation of gamma-H2AX protein expression at 1.25 to 5 uM incubated for 24 to 48 hrs by Western blot analysis; assay type: functional, cell-based; details: dose 1.25-5 µM, time 24-48 hrs
Raji [5] = experiment: Induction of apoptosis in human Raji cells assessed as total apoptotic cells at 5 uM incubated for 48 hrs by Annexin-V/PI staining based flow cytometric analysis relative to control; assay type: functional
Daudi [6] = experiment: Induction of cell cycle arrest in human Daudi cells assessed as G2 phase cells at 3 uM incubated for 24 hrs by PI staining based flow cytometry analysis (reference value: 25.92%); assay type: functional
Daudi [7] = experiment: Induction of apoptosis in human Daudi cells assessed as upregulation of cleaved caspase-9 expression at 0.75 to 3 uM incubated for 24 hrs by Western blot analysis; assay type: functional, cell-based; details: dose 0.75-3 µM
Daudi [8] = experiment: Induction of apoptosis in human Daudi cells assessed as upregulation of cleaved PARP expression at 0.75 to 3 uM incubated for 24 hrs by Western blot analysis; assay type: functional, cell-based; details: dose 0.75-3 µM
Daudi [9] = experiment: Induction of apoptosis in human Daudi cells assessed as downregulation of Bcl-xl expression at 0.75 to 3 uM incubated for 24 hrs by Western blot analysis; assay type: functional, cell-based; details: dose 0.75-3 µM
Raji [10] = experiment: Induction of apoptosis in human Raji cells assessed as upregulation of cleaved caspase-3 expression at 1.25 to 5 uM incubated for 24 hrs by Western blot analysis; assay type: functional, cell-based; details: dose 1.25-5 µM
Raji [11] = experiment: Induction of apoptosis in human Raji cells assessed as downregulation of Mcl-1 expression at 1.25 to 5 uM incubated for 24 hrs by Western blot analysis; assay type: functional, cell-based; details: dose 1.25-5 µM
Raji [12] = experiment: Induction of apoptosis in human Raji cells assessed as nuclear condensation incubated for 48 hrs by Hoechst 33258/PI staining based fluorescence microscopic analysis; assay type: functional, cell-based; details: dose 1.25-5 µM
Raji [13] = experiment: Induction of apoptosis in human Raji cells assessed as nuclear fragmentation incubated for 48 hrs by Hoechst 33258/PI staining based fluorescence microscopic analysis; assay type: functional, cell-based; details: dose 1.25-5 µM
Daudi [14] = experiment: Induction of mitochondrial dysfunction in human Daudi cells assessed as decrease in ATP content incubated for 24 hrs by CellTiter-Lumi […] assay; assay type: functional, cell-based; details: dose 0.75-3 µM
Daudi [15] = experiment: Induction of mitochondrial dysfunction in human Daudi cells assessed as decrease in ATP-5H protein expression at 1.5 to 3 uM incubated for 48 hrs by Western blot analysis; assay type: functional, cell-based; details: dose 1.5-3 µM
Raji [16] = experiment: Induction of mitochondrial dysfunction in human Raji cells assessed as decrease in ATP-5J protein expression at 2.5 to 5 uM incubated for 48 hrs by Western blot analysis; assay type: functional, cell-based; details: dose 2.5-5 µM
Daudi [17] = experiment: Induction of mitochondrial respiratory chain damage in human Daudi cells assessed as decrease in NDUFV2 protein expression at 1.5 to 3 uM incubated for 48 hrs by Western blot analysis; assay type: functional, cell-based; details: dose 1.5-3 µM
Raji [18] = experiment: Induction of mitochondrial respiratory chain damage in human Raji cells assessed as decrease in NDUFV2 protein expression at 2.5 to 5 uM incubated for 48 hrs by Western blot analysis; assay type: functional, cell-based; details: dose 2.5-5 µM
[19] = Inhibition of PI3K/AKT/mTOR signalling pathway in human Daudi cells assessed as inhibition of mTOR phosphorylation incubated for 24 hrs by Western blot analysis; assay type: cell-based; details: dose 0.75-3 µM
Daudi [20] = experiment: Downregulation of c-Myc expression level in human Daudi cells incubated for 24 hrs by Western blot analysis; assay type: functional, cell-based; details: dose 0.75-3 µM
Raji [21] = experiment: Effect on total mTOR protein level in human Raji cells at 1.25 to 5 uM incubated for 24 hrs by Western blot analysis; assay type: functional, cell-based; details: dose 1.25-5 µM
[22] = Inhibition of PI3K/AKT/mTOR signalling pathway in human Raji cells assessed as inhibition of AKT phosphorylation at […] residue incubated for 24 hrs by Western blot analysis; assay type: cell-based; details: dose 1.25-5 µM
[23] = Inhibition of PI3K/AKT/mTOR signalling pathway in human Daudi cells assessed as increase in ratio of mTOR phosphorylation to total mTOR protein level at 3 uM incubated for 12 hrs in the presence of YS49 by Western blot analysis; assay type: cell-based
[24] = Inhibition of PI3K/AKT/mTOR signalling pathway in human Raji cells assessed as increase in ratio of AKT phosphorylation at […] residue to total AKT protein level at 5 uM incubated for 12 hrs in the presence of YS49 by Western blot analysis; assay type: cell-based
[25] = Inhibition of PI3K/AKT/mTOR signalling pathway in human Raji cells assessed as increase in ratio of mTOR phosphorylation to total mTOR protein level at 5 uM incubated for 12 hrs in the presence of YS49 by Western blot analysis; assay type: cell-based
Daudi [26] = experiment: Induction of apoptosis in human Daudi cells assessed as viable cells at 3 uM incubated for 24 hrs by Annexin V-FITC/PI staining based flow cytometric analysis (reference value: 97.2%); assay type: functional; details: read-out: Activity
Daudi [27] = experiment: Induction of apoptosis in human Daudi cells assessed as early apoptotic cells at 3 uM incubated for 24 hrs by Annexin V-FITC/PI staining based flow cytometric analysis (reference value: 1.7%); assay type: functional
Daudi [28] = experiment: Induction of apoptosis in human Daudi cells assessed as necrotic cells at 3 uM incubated for 24 hrs by Annexin V-FITC/PI staining based flow cytometric analysis (reference value: 1.0%); assay type: functional
Raji [29] = experiment: Induction of apoptosis in human Raji cells assessed as viable cells at 5 uM incubated for 24 hrs by Annexin V-FITC/PI staining based flow cytometric analysis (reference value: 97.8%); assay type: functional; details: read-out: Activity
Raji [30] = experiment: Induction of apoptosis in human Raji cells assessed as early apoptotic cells at 5 uM incubated for 24 hrs by Annexin V-FITC/PI staining based flow cytometric analysis (reference value: 0.8%); assay type: functional
Raji [31] = experiment: Induction of apoptosis in human Raji cells assessed as late apoptotic cells at 5 uM incubated for 24 hrs by Annexin V-FITC/PI staining based flow cytometric analysis (reference value: 0.0%); assay type: functional
Raji [32] = experiment: Induction of apoptosis in human Raji cells assessed as viable cells at 5 uM incubated for 24 hrs in the presence of YS49 by Annexin V-FITC/PI staining based flow cytometric analysis (reference value: 97.8%); assay type: functional; details: read-out: Activity
Raji [33] = experiment: Induction of apoptosis in human Raji cells assessed as early apoptotic cells at 5 uM incubated for 24 hrs in the presence of YS49 by Annexin V-FITC/PI staining based flow cytometric analysis (reference value: 0.8%); assay type: functional
Raji [34] = experiment: Induction of apoptosis in human Raji cells assessed as necrotic cells at 5 uM incubated for 24 hrs in the presence of YS49 by Annexin V-FITC/PI staining based flow cytometric analysis (reference value: 1.5%); assay type: functional

COc1c(OC)c2c3c(nccc3c1-c1cc(C)cc(C)c1)C(c1cc(C)cc(C)c1)=CN2
Activity (Raji [1]): 40.65% | Activity (Daudi [2]): Active | Activity (Daudi [3]): Active | Activity (Raji [4]): Active | Activity (Raji [5]): 25.8% | Activity (Daudi [6]): 20.27% | Activity (Daudi [7]): Active | Activity (Daudi [8]): Active | Activity (Daudi [9]): Active | Activity (Raji [10]): Active | Activity (Raji [11]): Active | Activity (Raji [12]): Dose-Dependent Effect | Activity (Raji [13]): Dose-Dependent Effect | Activity (Daudi [14]): Dose-Dependent Effect | Activity (Daudi [15]): Active | Activity (Raji [16]): Active | Activity (Daudi [17]): Active | Activity (Raji [18]): Active | inhibition [19]: Dose-Dependent Effect | Activity (Daudi [20]): Dose-Dependent Effect | Activity (Raji [21]): inactive | inhibition [22]: Dose-Dependent Effect | inhibition [23]: inactive | inhibition [24]: inactive | inhibition [25]: inactive | viability at 3 µM (Daudi [26]): 72.7% | Activity (Daudi [27]): 18.6% | Activity (Daudi [28]): 2.2% | viability at 5 µM (Raji [29]): 56.2% | Activity (Raji [30]): 21.7% | Activity (Raji [31]): 4.2% | viability at 5 µM (Raji [32]): 67% | Activity (Raji [33]): 11.2% | Activity (Raji [34]): 20.8%
